These results are taken from patent US11034661B2, “Substituted N′-hydroxycarbamimidoyl-1,2,5-oxadiazole compounds as indoleamine 2,3-dioxygenase IDO inhibitors” (Merck Sharp & Dohme Corp., priority 2017, dated 2021).

For one assay, the target named is HIS-tagged IDO1 protein (Homo sapiens (Human), UniProt P14902). Description: IDO1 Enzyme Assay. The assay is classed as biochemical. Conditions: recombinant IDO1 40 nM, tryptophan substrate, fluorescence readout. In outline:
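Recombinant E. coli-expressed HIS-IDO1 (40 nM final) in 50 mM Tris pH 7.0 with methylene blue, ascorbate and catalase, preincubated with compound 30 min at RT, then tryptophan added and reacted 60 min at RT. Quenched with methyl isonipecotate, heated, fluorescence read (ex 400/em 510 nm); IC50 from four-parameter logistic fit.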

The target in assay [1] is IDO1 in human whole blood stimulated with LPS and IFNγ (Homo sapiens (Human), UniProt P14902). The assay is described as follows: IDO1 Human Whole Blood Assay. The assay is classed as cell-based. As to conditions: LPS and IFNγ 100 ng/mL, 18 h, kynurenine by LC/MS/MS. The method, then: IDO1 Human Whole Blood Assay
Compounds to be tested were serially diluted in ten 3-fold steps in DMSO starting from 10 mM. 3 μL of compound dilutions or DMSO alone were then dispensed from the dilution plate into a polypropylene 96-well assay plate containing 97 μL of RPMI using an Echo 555 acoustic liquid handler (Labcyte). LPS and IFNγ was prepared in RPMI to a 10× of final conc. (1000 ng/mL), final concentration is 100 ng/mL.
Human whole blood was drawn in sodium heparin coated tubes from healthy internal donors. Two hundred forty μL of blood was transferred to each of the wells of a v-bottom 96 well plate. Thirty μL of compound was transferred from intermediate dilution plate, and incubated for 15 min. Thirty μL from stimulants was then transferred to blood and mixed thoroughly. Plate was covered with breathable membrane and incubated at 37° C. for overnight (18 h).
On day 2 isotope labeled standard of kynurenine and tryptophan was made in water at 10× concentration and 30 μL was added to the blood at 3 μM final concentration. The assay plates were centrifuged at 300×G for 10 min with no brake to separate plasma from red blood cells. Sixty μL of plasma samples was removed without disturbing red blood cells. Plasma was diluted with RPMI in 1:1 ratio and proteins were precipitated out with two volume of Acetonitrile. The plates was centrifuged at 4000×G for 60 min. Twenty μL of supernatant was carefully transferred to a 384 well plate contain 40 μL of 0.1% formic acid in water and analyzed by LC/MS/MS.
LC/MS/MS analyses were performed using Thermo Fisher's LX4-TSQ Quantum Ultra system. This system consists of four Agilent binary high-performance liquid chromatography (HPLC) pumps and a TSQ Quantum Ultra triple quadruple MS/MS instrument. For each sample, 5 μL were injected onto an Atlantis T3 column (2.1 mm×150 mm, 3 μm particle size) from Waters. The mobile phase gradient pumped at 0.8 mL/min was used to elute the analytes from the column at 25° C. The elution started at 0% B increasing linearly to 25% B at 6.5 min, holding at 25% for 1 min, re-equilibrating to 10 min. Mobile phase A consisted of 0.1% formic acid in water. Mobile phase B consisted of 0.1% of formic acid in acetonitrile. Data was acquired in positive mode using a HESI interface. The operational parameters for the TSQ Quantum Ultra instrument were a spray voltage of 4000 V, capillary temperature of 380° C., vaporizer temperature 400° C., shealth gas 60 arbitrary units, Aux gas 20 arbitrary units, tube lens 85 and collision gas 1.2 mTorr. SRM chromatograms of kynurenine (Q 1: 209.2>Q3:94.0) and internal standard (Q1: 215.3>Q3:98.2) were collected for 90 sec. The peak area was integrated by Xcalibur Quan software. The ratios between the kynurenine generated in the reaction and 2D6-Kynurenine spiked-in internal standard were used to generate percentage inhibition and IC50 values. Compounds were titrated and IC50's were calculated by 4 parameter sigmoidal curve fitting formula.

In assay [2] the target is IDO1 in Hela cells stimulated with IFNγ (Homo sapiens (Human), UniProt P14902). The assay is described as follows: IDO1 Cellular Assay in Hela Cells Stimulated with IFNγ. The assay is classed as cell-based. As to conditions: IFNγ 100 ng/mL, about 48 hours, fluorescence readout, read-out: IDO1 HELA Cell Assay, IC50. In outline: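 IFNγ-stimulated (100 ng/mL) HeLa cells with 300 uM L-tryptophan were incubated with 10-point 3-fold compound dilutions for about 48 h at 37 °C. Kynurenine product was derivatized with methyl isonipecotate overnight and read by fluorescence (ex 400/em 510 nm). Signal was background-corrected using non-IFNγ cells and normalized to DMSO, and IC50 came from a four-parameter logistic fit.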

Each structure is given as a SMILES string.

HIS-tagged IDO1 protein, sequence (P14902 whole entry): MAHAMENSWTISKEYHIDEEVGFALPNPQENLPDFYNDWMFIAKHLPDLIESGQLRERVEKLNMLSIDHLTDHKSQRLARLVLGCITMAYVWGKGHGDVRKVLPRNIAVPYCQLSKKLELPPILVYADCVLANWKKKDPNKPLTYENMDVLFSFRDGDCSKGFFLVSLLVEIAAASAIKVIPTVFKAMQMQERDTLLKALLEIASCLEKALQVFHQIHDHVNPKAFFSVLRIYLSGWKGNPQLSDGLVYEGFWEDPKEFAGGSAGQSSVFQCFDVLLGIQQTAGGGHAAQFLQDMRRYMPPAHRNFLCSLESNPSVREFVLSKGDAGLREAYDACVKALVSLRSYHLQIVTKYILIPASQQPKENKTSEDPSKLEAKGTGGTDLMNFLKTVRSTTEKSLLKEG
IDO1 in human whole blood stimulated with LPS and IFNγ, sequence (P14902 whole entry): as above
IDO1 in Hela cells stimulated with IFNγ, sequence (P14902 whole entry): as above

For the compound `CC(=O)NCCOc1nonc1/C(=N/O)N[C@H]1Cc2ccc(F)cc21` [Example 3, (S)—N-(2-((4-(N-(4-fluorobicyclo[4.2.0]octa-1(6),2,4-trien-7-yl)-N′-hydroxycarbamimidoyl)-1,2,5-oxadiazol-3-yl)oxy)ethyl)acetamide], the values for the IC50 (on HIS-tagged IDO1 protein; in assay [2]) were 0.0585 µM and 0.0514 µM, respectively. In addition, the “IDO1 human whole blood assay, IC50” value in assay [1] worked out at 0.1854 µM.

Turning to `O=C(COc1nonc1/C(=N/O)N[C@H]1Cc2ccc(F)cc21)NCCO` [Example 4, (S)-2-((4-(N-(4-fluorobicyclo[4.2.0]octa-1(6),2,4-trien-7-yl)-N′-hydroxycarbamimidoyl)-1,2,5-oxadiazol-3-yl)oxy)-N-(2-hydroxyethyl)acetamide], the IC50 (usually the concentration that gives 50% inhibition) on HIS-tagged IDO1 protein amounted to 0.139 µM; in assay [2], 0.324 µM. Besides, the “IDO1 human whole blood assay, IC50” value in assay [1] worked out at 1.414 µM.

On to `O=C(CO)NCCOc1nonc1/C(=N/O)N[C@H]1Cc2ccc(F)cc21` [Example 5, N-{2-[(4-{N-[(7S)-4-fluorobicyclo[4.2.0]octa-1,3,5-trien-7-yl]-N′-hydroxycarbamimidoyl}-1,2,5-oxadiazol-3-yl)oxy]ethyl}-2-hydroxyacetamide], for which the values for the IC50 (on HIS-tagged IDO1 protein; in assay [2]) were 0.114 µM and 0.322 µM, respectively. For the same compound, the “IDO1 human whole blood assay, IC50” value in assay [1] was found to be 0.7149 µM.

On to `CS(=O)(=O)NCCOc1nonc1/C(=N/O)N[C@H]1Cc2ccc(F)cc21` [Example 6, N-[(7S)-4-fluorobicyclo[4.2.0]octa-1,3,5-trien-7-yl]-N′-hydroxy-4-{2-[(methylsulfonyl)amino]ethoxy}-1,2,5-oxadiazole-3-carboximidamide], for which the 50% inhibitory concentration (IC50) is 0.0483 µM at HIS-tagged IDO1 protein and 0.0583 µM in assay [2]. Also, the “IDO1 human whole blood assay, IC50” value in assay [1] was 0.3513 µM.

As to `C[C@@H](CO)NC(=O)COc1nonc1/C(=N/O)N[C@H]1Cc2ccc(F)cc21` [Example 7, 2-[(4-{N-[(7S)-4-fluorobicyclo[4.2.0]octa-1,3,5-trien-7-yl]-N′-hydroxycarbamimidoyl}-1,2,5-oxadiazol-3-yl)oxy]-N-[(2S)-1-hydroxypropan-2-yl]acetamide], the results for the IC50 (at HIS-tagged IDO1 protein; in assay [2]) were 0.0721 µM and 0.0886 µM, respectively. Also, the “IDO1 human whole blood assay, IC50” value in assay [1] came out at 1.176 µM.

In the case of `NC(=O)NCCOc1nonc1/C(=N/O)NC1Cc2ccc(F)cc21` (stereo not drawn) [Example 11, 4-[2-(carbamoylamino)ethoxy]-N-(4-fluorobicyclo[4.2.0]octa-1,3,5-trien-7-yl)-N′-hydroxy-1,2,5-oxadiazole-3-carboximidamide], the IC50 at HIS-tagged IDO1 protein was found to be 0.0748 µM; in assay [2], 0.194 µM. For the same compound, the “IDO1 human whole blood assay, IC50” value in assay [1] was determined as 0.2624 µM.

With `O=C(c1nc[nH]n1)N1CC(Oc2nonc2/C(=N/O)N[C@H]2Cc3ccc(F)cc32)C1` [Example 30, N-[(7S)-4-fluorobicyclo[4.2.0]octa-1,3,5-trien-7-yl]-N′-hydroxy-4-{[1-(1H-1,2,4-triazole-3-carbonyl)azetidin-3-yl]oxy}-1,2,5-oxadiazole-3-carboximidamide], the IC50 was 0.056 µM at HIS-tagged IDO1 protein and 0.0659 µM in assay [2]. Also, in assay [1], the “IDO1 human whole blood assay, IC50” value was 0.6655 µM.

On to `CCC(=O)NCCOc1nonc1/C(=N/O)N[C@H]1Cc2ccc(F)cc21` [Example 33, N-{2-[(4-{N-[(7S)-4-fluorobicyclo[4.2.0]octa-1,3,5-trien-7-yl]-N′-hydroxycarbamimidoyl}-1,2,5-oxadiazol-3-yl)oxy]ethyl}propanamide], for which the IC50 on HIS-tagged IDO1 protein was found to be 0.0398 µM; in assay [2], 0.053 µM. In assay [1], the “IDO1 human whole blood assay, IC50” value was determined as 0.5033 µM.

Regarding `CC(=O)N[C@H]1C[C@@H](Oc2nonc2/C(=N/O)N[C@H]2Cc3ccc(F)cc32)C1` [Example 36, N-{cis-3-[(4-{N-[(7S)-4-fluorobicyclo[4.2.0]octa-1,3,5-trien-7-yl]-N′-hydroxycarbamimidoyl}-1,2,5-oxadiazol-3-yl)oxy]cyclobutyl}acetamide], the IC50 is 0.0507 µM at HIS-tagged IDO1 protein and 0.0421 µM in assay [2]. Further, the “IDO1 human whole blood assay, IC50” value in assay [1] came out at 0.3142 µM.

For `O=C(CO)N[C@H]1C[C@@H](Oc2nonc2/C(=N/O)N[C@H]2Cc3ccc(F)cc32)C1` [Example 38, N-{cis-3-[(4-{N-[(7S)-4-fluorobicyclo[4.2.0]octa-1,3,5-trien-7-yl]-N′-hydroxycarbamimidoyl}-1,2,5-oxadiazol-3-yl)oxy]cyclobutyl}-2-hydroxyacetamide], the IC50 on HIS-tagged IDO1 protein was 0.0678 µM; in assay [2], 0.0749 µM. In addition, the “IDO1 human whole blood assay, IC50” value in assay [1] was determined as 0.5186 µM.

Consider `NC(=O)N[C@H]1C[C@@H](Oc2nonc2/C(=N/O)N[C@H]2Cc3ccc(F)cc32)C1` [Example 42, 4-{[cis-3-(carbamoylamino)cyclobutyl]oxy}-N-[(7S)-4-fluorobicyclo[4.2.0]octa-1,3,5-trien-7-yl]-N′-hydroxy-1,2,5-oxadiazole-3-carboximidamide], for which the values for the IC50 (at HIS-tagged IDO1 protein; in assay [2]) were 0.049 µM and 0.04 µM, respectively. Also, the “IDO1 human whole blood assay, IC50” value in assay [1] amounted to 0.3876 µM.

In the case of `NS(=O)(=O)N[C@H]1C[C@@H](Oc2nonc2/C(=N/O)N[C@H]2Cc3ccc(F)cc32)C1` [Example 43, N-[(7S)-4-fluorobicyclo[4.2.0]octa-1,3,5-trien-7-yl]-N′-hydroxy-4-{[cis-3-(sulfamoylamino)cyclobutyl]oxy}-1,2,5-oxadiazole-3-carboximidamide], the IC50 at HIS-tagged IDO1 protein worked out at 0.0366 µM; in assay [2], 0.0454 µM. In assay [1], the “IDO1 human whole blood assay, IC50” value is 1.44 µM.

Regarding `O=C(N1CC(Oc2nonc2/C(=N/O)N[C@H]2Cc3ccc(F)cc32)C1)C1(O)CC1` [Example 47, N-[(7S)-4-fluorobicyclo[4.2.0]octa-1,3,5-trien-7-yl]-N′-hydroxy-4-{[1-(1-hydroxycyclopropane-1-carbonyl)azetidin-3-yl]oxy}-1,2,5-oxadiazole-3-carboximidamide], the IC50 on HIS-tagged IDO1 protein stood at 0.0566 µM; in assay [2], 0.0499 µM. Also, the “IDO1 human whole blood assay, IC50” value in assay [1] was 0.5006 µM.

As for `C[C@H](O)C(=O)N1CC(Oc2nonc2/C(=N/O)N[C@H]2Cc3ccc(F)cc32)C1` [Example 48, N-[(7S)-4-fluorobicyclo[4.2.0]octa-1,3,5-trien-7-yl]-N′-hydroxy-4-({1-[(2S)-2-hydroxypropanoyl]azetidin-3-yl}oxy)-1,2,5-oxadiazole-3-carboximidamide], the IC50 on HIS-tagged IDO1 protein was determined as 0.102 µM; in assay [2], 0.0884 µM. Moreover, in assay [1], the “IDO1 human whole blood assay, IC50” value stood at 0.4003 µM.

As for `O=C(CO)N[C@H]1C[C@H](Oc2nonc2/C(=N/O)N[C@H]2Cc3ccc(F)cc32)C1` [Example 56, N-{trans-3-[(4-{N-[(7S)-4-fluorobicyclo[4.2.0]octa-1,3,5-trien-7-yl]-N′-hydroxycarbamimidoyl}-1,2,5-oxadiazol-3-yl)oxy]cyclobutyl}-2-hydroxyacetamide], the IC50 at HIS-tagged IDO1 protein amounted to 1.49 µM; in assay [2] it was 1.34 µM. Further, the “IDO1 human whole blood assay, IC50” value in assay [1] was 0.3861 µM.

Turning to `NC(=O)N[C@H]1C[C@H](Oc2nonc2/C(=N/O)N[C@H]2Cc3ccc(F)cc32)C1` [Example 57, 4-{[trans-3-(carbamoylamino)cyclobutyl]oxy}-N-[(7S)-4-fluorobicyclo[4.2.0]octa-1,3,5-trien-7-yl]-N′-hydroxy-1,2,5-oxadiazole-3-carboximidamide], the IC50 was 0.215 µM at HIS-tagged IDO1 protein and 0.328 µM in assay [2]. In addition, the “IDO1 human whole blood assay, IC50” value in assay [1] was found to be 0.9549 µM.
